Where “and” joins values, the source holds several entries; their conditions need not be identical. Equal entries are not always repeated.
What was measured:
[1] = test system: GHRH stimulated GH secretion; test: GH secretion, rat in urethan anesthesia, intraduodenal + repeated GHRH stimulation; type: in vivo; settings: for INTRADUODENAL + GHRH ID50 15′ / INTRADUODENAL + GHRH ID50 30′ / INTRADUODENAL + GHRH ID50 60′ / INTRADUODENAL + GHRH ID50 120′: urethan; for INTRADUODENAL + GHRH ID50 15′ / INTRADUODENAL + GHRH ID50 120′: ø = no effect at this dose
Source text: No further treatment followed subcutaneous or intraduodenal application. […] This value has been determined in a total of four independent experiments. […] However, in further studies compound 47 has also been tested by the enteral route of administration after repeated stimulation of the GH secretion by GHRH. […] With most of these selected compounds additional in vivo experiments in other models (intraduodenal application followed by repeated stimulation of the GH secretion by GHRH, oral application by gavage of unanesthetized, estradiol primed rats) were performed. Table 4 summarizes data obtained for the inhibition of the stimulated GH secretion after subcutaneous, intraduodenal and intravenous application and the inhibitory effects obtained for different time points during intravenous infusion of selected hydantoins. […] [table]

GH secretion [2] = test: GH secretion in vivo, rat, intraduodenal (enteral) application, 1 h (basal); settings: for GH vivo i.d. 1 h ID50: basal GH secretion, 1 h after intraduodenal application, mostly approximate ID50 from single 10 mg/kg dose, Ø = no effect at this dose, > = extrapolated value; for enteral ID50 (GH secretion): enteral (intraduodenal) application
Method: (§1) Animals, anesthesia: Male rats of a Sprague Dawley strain (Ico:OFA-SD, Iffa-Credo, F-Lyon) of 200-300 g body weight were used. They were kept under standardized conditions and were anesthetized with pentobarbital-sodium (Siegfried, CH Zofingen), 60 mg/kg i.p. for subcutaneous and intraduodenal applications. Animals designed for an infusion experiment were anesthetized with urethane (Siegfried, CH Zofingen), 1.2 g/kg i.p.
(§2) Compounds: The compounds were dissolved, optionally with the aid of one or more of the following adjuncts:
(§3) Stock solutions of the compounds were prepared in water with the addition of the necessary adjunct(s). Further dilutions were prepared allowing 5 mL/kg for subcutaneous application, 2 mL for intraduodenal (i.d.) application or 4.5 mL/kg for intravenous infusion. The solutions for the intravenous application/infusion were made isotonic by addition of glucose to a final concentration of 5%.
(§4) Applications were made, or, in the case of infusion, started, approximately 10 minutes after induction of anesthesia. No further treatment followed subcutaneous or intraduodenal application. Ten, twenty-five and fifty-five minutes after start of the intravenous infusion the GH secretion was stimulated with repeated intravenous injections of the potent GHRH analog, D-Ala2 GHRH1-29NH2, 1 μg/kg.
(§5) One hour after subcutaneous or intraduodenal application of the compounds, blood was collected from the trunk after decapitation. In the case of application by infusion, 5 minutes after each application of GHRH, a blood sample of 0.8 mL was taken from a V. jugularis and mixed with EDTA (Eppendorf tubes TOM14, Milian, CH Geneva). The blood samples were kept on ice and spun in a cooled centrifuge. The serum or plasma was separated and frozen.
(§6) Statistics: In each experiment, 4-5 animals were used per dose, with 6 to 8 animals as the control group that received the vehicle. The GH serum/plasma levels were averaged, the mean of the treated groups expressed in percent of the control group and the ID50-value for the inhibition of the secretion was determined graphically (log-probit) for each experiment. In most experiments with enteral (intraduodenal) application only 1 dose, 10 mg/kg, was given. […] Only inhibitions between 20 and 80% were considered reliable.
(§7) Two to four experiments were performed. In the case of proper dose response curves, allowing the determination of an ID50 values were averaged logarithmically. In the cases of single dose-experiments, the GH value in percent of control were averaged logarithmically and the ID50 for this value was taken from the table. ID50 values determined at the different time points during the infusion were averaged and this value was included in the tables.

GH secretion [3] = test: Unanesthetized estradiol primed male rats, oral by gavage: GH; type: in vivo, rat; settings: for GH 1 H ID50 / MEAN ID50 (GH and prolactin): estradiol implant male rats, oral by gavage, 1 hour
Method: The inhibitory effect of the compounds on GH release may also be examined after oral application to male rats with oestradiol implants. This test is carried out as follows.
A loop (length 50 mmØ3 mm) of silastic with 50 mg of oestradiol is implanted under the dorsal skin of anaesthetized male OFA rats that have a weight of ca. 300 g. At various times (1 to 6 months later), these animals, in a fasted state, are used repeatedly for tests. The test substances are active in this test at doses from 0.1 to 5 mg/kg, when GH level in the blood serum is determined by radio-immunoassay 1 and 2 hours after oral administration.
(§8) Table 5 summarizes the results obtained in the estradiol primed male rats that received the compounds orally by gavage. These rats have stabilized elevated GH plasma levels as well as increased prolactin levels. In contrast to normal untreated rats, who's prolactin secretion is not sensitive to the inhibitory effect of somatostain, in these rats the prolactin secretion is inhibited to a similar degree as the GH secretion. Therefore, the inhibitory effect can be measured on 2 different parameters, GH and prolactin. The mean enteral absorption and activity of the respective compounds are shown.

[4] = test system: GHRH stimulated GH secretion; test: GH secretion in vivo, rat, intravenous infusion with repeated GHRH stimulation; settings: for INFUS. + GHRH ID50 MEAN: Table 4, mean of infusion time points; for INFUS. + GHRH ID50 15′ / INFUS. + GHRH ID50 30′ / INFUS. + GHRH ID50 60′: Table 4, urethan; for GH vivo Inf + GHRH ID50 (mean of time points): urethane, i.v. infusion, GHRH stimulated
Method: as §1, §3, §4, §5, §6, §7

[5] = test system: GHRH stimulated GH secretion; test: GH secretion, rat in urethan anesthesia, subcutaneous + repeated GHRH stimulation; type: in vivo
Method: as §4
With most of these selected compounds additional in vivo experiments in other models (intraduodenal application followed by repeated stimulation of the GH secretion by GHRH, oral application by gavage of unanesthetized, estradiol primed rats) were performed. Table 4 summarizes data obtained for the inhibition of the stimulated GH secretion after subcutaneous, intraduodenal and intravenous application and the inhibitory effects obtained for different time points during intravenous infusion of selected hydantoins.

prolactin secretion = test: Unanesthetized estradiol primed male rats, oral by gavage: prolactin; type: in vivo, rat; settings: for PROLACT 1 H ID50: estradiol implant male rats, oral by gavage, ø = no effect at this dose
Source text: as §8

[6] = test system: GHRH stimulated GH secretion; test: GH secretion, rat in urethan anesthesia, i.v. single injection + repeated GHRH stimulation; type: in vivo
GH secretion [7] = test: GH secretion in vivo, rat, subcutaneous application, 1 h (basal); settings: rat, basal GH secretion, 1 h after subcutaneous application
Method: as §1, §2, §3, §4, §5, §6, §7

[8] = target: T1, human sst2 receptor sub-type (Homo sapiens, UniProt P30874); test: In vitro binding, human sst2 receptor sub-type (SSTR2); settings: Tables 8/9: Bind SSTR2 nM
T1 construct: host or cells: SRIF receptor expressing cell cultures (general statement only)
Method: The in vitro binding affinities for rat cortex SRIF receptors and the human sst2 receptor sub-type was assessed. Further the in vitro inhibition of the GHRH induced GH secretion in primary cultures of rat pituitary cells as well as the in vivo inhibition of GH secretion in the rat after systemic or enteral application was studied. […] Therefore, the in vivo activities of the compounds in rats with respect to inhibition of growth hormone release was also assessed. Most compounds selected were tested by enteral—intraduodenal (i.d.) application. For determination of the absolute activity and for the calculation of an enteral bioavailability, single subcutaneous (s.c.) application of intravenous (i.v.) infusion was used.

SS1 = SS1 (Rattus norvegicus, UniProt P30680); test: SS-1 binding (Bind SS1 D.H.)
[9] = test system: GHRH induced GH secretion in primary cultures of rat pituitary cells; test: In vitro inhibition of GHRH induced GH secretion (GH vitro +GHRH); type: cell-based

T1 sequence (P30874 whole entry): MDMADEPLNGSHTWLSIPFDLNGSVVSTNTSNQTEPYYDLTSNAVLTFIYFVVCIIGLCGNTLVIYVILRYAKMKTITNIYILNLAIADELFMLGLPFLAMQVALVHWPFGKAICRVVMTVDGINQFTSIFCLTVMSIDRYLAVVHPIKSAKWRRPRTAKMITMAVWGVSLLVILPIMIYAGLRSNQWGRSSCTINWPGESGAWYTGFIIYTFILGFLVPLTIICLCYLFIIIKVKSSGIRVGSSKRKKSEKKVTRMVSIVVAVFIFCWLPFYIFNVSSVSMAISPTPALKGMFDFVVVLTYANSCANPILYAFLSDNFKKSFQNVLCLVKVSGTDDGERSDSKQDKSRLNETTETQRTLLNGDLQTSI
SS1, sequence (P30680 whole entry): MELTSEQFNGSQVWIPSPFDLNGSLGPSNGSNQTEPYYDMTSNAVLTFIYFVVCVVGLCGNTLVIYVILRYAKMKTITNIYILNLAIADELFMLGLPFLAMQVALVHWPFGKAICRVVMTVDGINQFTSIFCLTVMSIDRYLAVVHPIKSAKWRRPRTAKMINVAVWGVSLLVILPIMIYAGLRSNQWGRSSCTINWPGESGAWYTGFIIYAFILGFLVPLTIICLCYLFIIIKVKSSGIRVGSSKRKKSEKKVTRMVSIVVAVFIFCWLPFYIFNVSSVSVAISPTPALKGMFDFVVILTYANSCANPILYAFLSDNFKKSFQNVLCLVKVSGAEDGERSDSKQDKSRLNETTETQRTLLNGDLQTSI

Structure (SMILES)	INTRADUODENAL + GHRH ID50 15′ [1] [µg/kg]	INTRADUODENAL + GHRH ID50 30′ [1] [µg/kg]	INTRADUODENAL + GHRH ID50 60′ [1] [µg/kg]	INTRADUODENAL + GHRH ID50 120′ [1] [µg/kg]	GH vivo i.d. 1 h ID50 (GH secretion [2])	enteral ID50 (GH secretion) (GH secretion [2]) [µg/kg]	GH 1 H ID50 (GH secretion [3]) [µg/kg]	MEAN ID50 (GH and prolactin) (GH secretion [3]) [µg/kg]	INFUS. + GHRH ID50 MEAN [4] [µg/kg]	INFUS. + GHRH ID50 15′ ([4]; 15′ of infusion) [µg/kg]	INFUS. + GHRH ID50 30′ ([4]; 30′ of infusion) [µg/kg]	INFUS. + GHRH ID50 60′ ([4]; 60′ of infusion) [µg/kg]	GH vivo Inf + GHRH ID50 (mean of time points) [4] [µg/kg/h]	SUBCUTANEOUS + GHRH ID50 15′ [5] [µg/kg]	SUBCUTANEOUS + GHRH ID50 30′ [5] [µg/kg]	SUBCUTANEOUS + GHRH ID50 60′ [5] [µg/kg]	PROLACT 1 H ID50 (prolactin secretion) [µg/kg]	GH vivo s.c. 1 h ID50 (GH secretion [7]) [µg/kg]	IC50 [8] [nM]	other results
Cc1cccc2c(CC3C(=O)N(CCCCCN)C(=O)N3S(=O)(=O)c3ccc(Oc4ccc(O)c(Cl)c4)c(C(=O)N(C)C)c3)c[nH]c12 (racemic) [(+/−)-43]	1165	1646	1419	2872	3417 µg/kg	3400	3000	2324	3.72	6.44	3.58	2.24	3.72	7.05	7.95	11.35	1800	3.79	–	inhibition at 10 mg/kg (GH secretion [2]; intraduodenal, enteral administration of 10 mg/kg): 68%; oral ID50 (GH) (GH secretion [3]; estradiol primed male rats): 3000 µg/kg; SUBCUTANEOUS + GHRH ID50 120′ ([5]; 120′): 15.69 µg/kg; oral ID50 (prolactin) (prolactin secretion; estradiol primed male rats): 1800 µg/kg; I.V. SINGLE INJECTION + GHRH ID50 15′ ([6]; 15′): 12.50 µg/kg; I.V. SINGLE INJECTION + GHRH ID50 30′ ([6]; 30′): 31.20 µg/kg; I.V. SINGLE INJECTION + GHRH ID50 60′ ([6]; 60′): 55.00 µg/kg; I.V. SINGLE INJECTION + GHRH ID50 120′ ([6]; 120′): 124.10 µg/kg
Cc1cccc2c(CC3C(=O)N(CCCCCN)C(=O)N3S(=O)(=O)c3ccc(Oc4ccc(O)c(Cl)c4)c(C(=O)N(C)C)c3)c[nH]c12 (single isomer, unassigned; (+)) [(+)-43]	–	–	–	–	4800 µg/kg	–	–	–	1.68	2.28	1.54	1.35	1.68	–	–	–	–	3.0	0.18	GH vivo s.c. 1 h ID50 (GH secretion [7]; listed as (+)−43): 3.00 µg/kg; GH vivo s.c. 1 h ID50 (GH secretion [7]; listed as (+)−43 ch): 3.00 µg/kg
Cc1cccc2c(CC3C(=O)N(CCCCC(C)(C)N)C(=O)N3S(=O)(=O)c3ccc(Oc4ccc(O)c(Cl)c4)c(C(=O)N(C)C)c3)c[nH]c12 (stereo not drawn) [Compound 47]	–	–	–	–	˜454 μg/kg	500	–	–	–	–	–	–	8.10	–	–	–	–	10.00	0.38	bioavailability calculated in the GHRH stimulated enteral model [1]: 0.3%; enteral ID50 after repeated stimulation of the GH secretion by GHRH ([1]; 1 hour): ~2600 µg/kg; enteral bioavailability (from ID50 ratio) (GH secretion [2]; intraduodenal 1 hour vs parenteral ID50): 1.8%
CN(C)C(=O)c1cc(S(=O)(=O)N2C(=O)N(CCCCCN)C(=O)C2Cc2c[nH]c3ccccc23)ccc1Oc1ccc(OC(=O)C(N)CCCCN)c(Cl)c1 (stereo not drawn) [Compound 48]	–	–	–	–	> 15000 µg/kg	–	11000	9950	–	–	–	–	32.00	–	–	–	9000	–	2.5	GH inhibition by the enteral route (GH secretion [2]; 10 mg/kg enteral): exhibited inhibition
C[C@@H](O)[C@@H]1NC(=O)[C@H](CCCCN)NC(=O)[C@@H](Cc2c[nH]c3ccccc23)NC(=O)[C@H](Cc2ccccc2)NC(=O)[C@@H](NC(=O)[C@H](N)Cc2ccccc2)CSSC[C@@H](C(=O)N[C@H](CO)[C@@H](C)O)NC1=O [Octreotride, Octreotide, reference compound]	24.2	16.6	26.8	82.0	125 µg/kg	–	440	663	0.12	0.16	0.11	0.10	–	0.15	0.15	0.26	998	0.13	–	Bind SS1 D.H. (SS1): 0.30 nM; GH, Ur Inf15′ +GHRH ([4]; Tables 8/9, urethane, 15′ of infusion): 0.124 µg/kg/h; GH, UR Inf30′ +GHRH ([4]; Tables 8/9, urethane, 30′ of infusion): 0.082 µg/kg/h; GH, UR Inf60′ +GHRH ([4]; Tables 8/9, urethane, 60′ of infusion): 0.085 µg/kg/h; GH vivo Inf + GHRH ID50 (mean of time points) ([4]; listed as Octreotride ac): 0.12 µg/kg/h and 0.096 µg/kg/h; GH vivo Inf + GHRH ID50 (mean of time points) ([4]; listed as octreotride ac): 0.096 µg/kg/h; IC50 [9]: 1.3 nM
C[C@H](N)C(=O)NCC(=O)N[C@H]1CSSC[C@@H](C(=O)O)NC(=O)[C@H](CO)NC(=O)[C@H]([C@@H](C)O)NC(=O)[C@H](Cc2ccccc2)NC(=O)[C@H]([C@@H](C)O)NC(=O)[C@H](CCCCN)NC(=O)[C@H](Cc2c[nH]c3ccccc23)NC(=O)[C@H](Cc2ccccc2)NC(=O)[C@H](Cc2ccccc2)NC(=O)[C@H](CC(N)=O)NC(=O)[C@H](CCCCN)NC1=O [SRIF14, somatostatin 14, reference compound]	–	–	–	–	–	–	–	–	3.90	6.00	3.35	2.90	–	–	–	–	–	–	–	–

Source: patent US20040019092A1, “Non-peptide somatostatin receptor ligands” (priority 2001, published 2004)
